Data published in ChEMBL document CHEMBL1201862, “PubChem BioAssay data set” (2004).
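Test compounds were applied to cells in 96-well plates for 48 hours at 5 doses. GI50: concentration for 50% inhibition of growth.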 The source made the active and inactive calls. Cut-off read from the data, not from the text of the source: active = GI50 up to about 1.1 µM and inactive = higher.

Assays:
Assay in all cases: DTP human tumour cell line panel, 48 h
SR = tested on: SR
NCI-H460 = tested on: NCI-H460
LOX IMVI = tested on: LOX IMVI
HT-29 = tested on: HT-29
Malme-3M = tested on: Malme-3M
KM12 = tested on: KM12
HOP-92 = tested on: HOP-92
UACC-62 = tested on: UACC-62
SK-MEL-5 = tested on: SK-MEL-5
CAKI-1 = tested on: CAKI-1
CCRF-CEM = tested on: CCRF-CEM
EKVX = tested on: EKVX
SK-MEL-28 = tested on: SK-MEL-28
SF-268 = tested on: SF-268
SW-620 = tested on: SW-620
HOP-62 = tested on: HOP-62
RPMI-8226 = tested on: RPMI-8226

Measured: GI50

C/C(=N/OCCC(=O)O)C1CC1
inactive: SR 90.4 µM | NCI-H460 > 100 µM | LOX IMVI > 100 µM | HT-29 > 100 µM | Malme-3M > 100 µM | KM12 > 100 µM | HOP-92 > 100 µM | UACC-62 > 100 µM | SK-MEL-5 > 100 µM | CAKI-1 > 100 µM | CCRF-CEM > 100 µM | EKVX > 100 µM | SK-MEL-28 > 100 µM | SF-268 > 100 µM | SW-620 > 100 µM | HOP-62 > 100 µM | RPMI-8226 > 100 µM

O=C(c1ccccc1)c1nnn(Cc2ccccc2Cn2nnc(C(=O)c3ccccc3)c2C(=O)c2ccccc2)c1C(=O)c1ccccc1
inactive: SR > 100 µM | NCI-H460 > 100 µM | LOX IMVI > 100 µM | HT-29 > 100 µM | Malme-3M > 100 µM | KM12 > 100 µM | HOP-92 > 100 µM | UACC-62 > 100 µM | SK-MEL-5 > 100 µM | CAKI-1 > 100 µM | CCRF-CEM > 100 µM | EKVX 47.6 µM | SK-MEL-28 > 100 µM | SF-268 > 100 µM | SW-620 > 100 µM | HOP-62 > 100 µM | RPMI-8226 > 100 µM

CCCCCCC(=O)CC(=O)C(=O)Nc1ccccc1C
inactive: SR > 100 µM | NCI-H460 > 51.1 µM | LOX IMVI > 43 µM | HT-29 > 100 µM | Malme-3M > 100 µM | KM12 > 100 µM | HOP-92 > 100 µM | UACC-62 > 100 µM | SK-MEL-5 > 100 µM | CAKI-1 > 100 µM | CCRF-CEM > 100 µM | EKVX > 100 µM | SK-MEL-28 > 100 µM | SF-268 > 65.6 µM | SW-620 > 39.7 µM | HOP-62 > 100 µM | RPMI-8226 > 100 µM

CC(C)(Oc1ccc(/C=C/C(=O)c2ccccc2)cc1)C(=O)Nc1c(Cl)cccc1Cl
inactive: SR 3.48 µM | NCI-H460 > 10 µM | LOX IMVI > 10 µM | HT-29 > 10 µM | Malme-3M > 10 µM | KM12 4.07 µM | HOP-92 > 10 µM | UACC-62 > 10 µM | SK-MEL-5 > 10 µM | CAKI-1 > 10 µM | CCRF-CEM 15 µM | EKVX > 10 µM | SK-MEL-28 > 10 µM | SF-268 > 10 µM | SW-620 7.08 µM | HOP-62 > 10 µM | RPMI-8226 > 10 µM
